# Data taken from patent US11466044B2 (WAYNE STATE UNIVERSITY, priority 2017, dated 2022).
# Like-named read-outs stand apart in the source and are kept apart here.
# Experiments:
# [1] = test system: wild type bacterial ribosomes; assay: in-vitro translation assay, bacterial ribosomes; assay type: biochemical; details: bacterial ribosome, read-out: IC50 Bac
# Text: (§1) The antiribosomal activity of these compounds was investigated with cell-free translation assays using both wild type bacterial ribosomes and hybrid ribosomes carrying eukaryotic decoding A sites enabling the prediction of selectivity.
# [2] = test system: cytosolic ribosome (human chimeric); assay type: biochemical; details: cytosolic, read-out: IC50 Cyt
# Text: as §1
# [3] = test system: mitochondrial ribosome (human chimeric); assay type: biochemical; details: mitochondrial, read-out: IC50 Mit
# Text: as §1
# E coli wild type = assay: MIC by broth microdilution, wild type E coli; assay type: cell-based; details: for MIC: Escherichia coli
# [4] = test system: E coli carrying specific resistance determinants; assay: MIC by broth microdilution, E coli carrying specific resistance determinants; assay type: cell-based; details: for MIC: Escherichia coli
# P aeruginosa = assay: MIC by broth microdilution, P aeruginosa isolates; assay type: cell-based, Pseudomonas aeruginosa; details: Table 1 (Example 2)
# M. smegmatis SZ380 = assay: MIC by broth microdilution, M. smegmatis; details: strain SZ380 Mycobacterium smegmatis
# MRSA = assay: MIC by broth microdilution, MRSA isolates; assay type: cell-based; details: Table 1 (Example 2)
# [5] = ATCC25922, strain AG212 E. coli (ATCC25922), read-out: MIC AG212 E. coli
# [6] = read-out: MIC WT, WT, Table 3 (Example 2)
smiles,measurement,setting,value
NC[C@@H]1O[C@H](O[C@H]2[C@@H](O)[C@H](O[C@@H]3[C@@H](O)[C@H](N)C[C@H](N)[C@H]3O[C@H]3O[C@H](CN)[C@@H](O)C[C@H]3N)O[C@@H]2CO)[C@H](N)[C@@H](O)[C@@H]1O [Compound 140],IC50,[1]; Table 3 (Example 1),0.04 µM
same,IC50,[2]; Table 3 (Example 1),66 µM
same,IC50,[3]; Table 3 (Example 1),4.6 µM
same,MIC WT,E coli wild type; Table 3 (Example 1),1 mg/L
same,MIC AG160 E. coli WT,"E coli wild type; clinical isolate AG160 WT, Table 2 (Example 4)",1 mg/L
same,MIC pH430 E. coli WT,"E coli wild type; engineered strain pH430 WT, Table 2 (Example 4)",1 μg/ml
same,MIC APH(3)-VI,"[4]; APH(3)-VI, Table 3 (Example 1)",1 mg/L
same,MIC APH(3′)-I,"[4]; APH(3′)-I, Table 3 (Example 1)",>32 mg/L
same,MIC APH(3′)-II,"[4]; APH(3′)-II, Table 3 (Example 1)",1 mg/L
same,MIC APH(3′)-III,"[4]; APH(3′)-III, Table 3 (Example 1)",32 mg/L
same,MIC AG163 E. coli APH(3′)-I,"[4]; clinical isolate AG163 APH(3′)-I, Table 2 (Example 4)",64 mg/L
same,MIC AG166 E. coli APH(3′)-II,"[4]; clinical isolate AG166 APH(3′)-II, Table 2 (Example 4)",1 mg/L
same,MIC AG037 E. coli APH(3′)-III,"[4]; engineered strain AG037 APH(3′)-III, Table 2 (Example 4)",32 mg/L
same,MIC pH421 E. coli APH(3′)-I,"[4]; engineered strain pH421 APH(3′)-I, Table 2 (Example 4)",>32 μg/ml
same,MIC pH422 E. coli APH(3′)-II,"[4]; engineered strain pH422 APH(3′)-II, Table 2 (Example 4)",1 μg/ml
same,MIC pH423 E. coli APH(3′)-VI,"[4]; engineered strain pH423 APH(3′)-VI, Table 2 (Example 4)",1 μg/ml
"CC1CC(N)C2O[C@H](O[C@@H]3C(N)C[C@@H](N)C(O)[C@H]3O[C@@H]3O[C@H](CO)[C@H](O[C@H]4O[C@@H](CN)[C@@H](O)C(O)C4N)C3O)C(N)[C@@H](O)[C@@H]2O1 (stereo partly drawn) [Compound 150, 4-O-(2′,6′-Diamino-4′,8′-anhydro-2′,6′,7′,9′-tetradeoxy-D-erythro-α-D-gluco-nonapyranosyl)-5-O-(β-paramobiosyl)-2-deoxystreptamine.6AcOH]",IC50,[1]; Table 3 (Example 2),0.48 µM
same,MIC50 P aeruginosa AG31,P aeruginosa; strain AG31,>128 mg/L
same,MIC50 P aeruginosa AG32,P aeruginosa; strain AG32,>128 mg/L
same,MIC50 P aeruginosa AG33,P aeruginosa; strain AG33,>128 mg/L
same,MIC50 P aeruginosa AG86,P aeruginosa; strain AG86,>128 mg/L
same,IC50,[2]; Table 3 (Example 2),12 µM
same,IC50,[3]; Table 3 (Example 2),4.1 µM
same,MIC SZ380 M. smegmatis,M. smegmatis SZ380,16 to 32 mg/L
same,MIC50 MRSA AG38,MRSA; strain AG38,128 mg/L
same,MIC50 MRSA AG39,MRSA; strain AG39,128 mg/L
same,MIC50 MRSA AG42,MRSA; strain AG42,128 mg/L
same,MIC50 MRSA AG44,MRSA; strain AG44,128 mg/L
same,MIC50 E coli BM13 (AG06) wt,"E coli wild type; BM13 (AG06) wt, Table 2A (Example 2)",64 to 128 mg/L
same,MIC WT,E coli wild type; Table 3 (Example 2),64 to 128 mg/L
same,MIC50 E coli pH430 WT,"E coli wild type; pH430 WT, Table 2B (Example 2)",64-128 μg/ml
same,MIC50 E coli AG01,"E coli wild type; strain AG01, Table 1 (Example 2)",>128 mg/L
same,MIC50 E coli AG03,"E coli wild type; strain AG03, Table 1 (Example 2)",>128 mg/L
same,MIC50 E coli AG55,"E coli wild type; strain AG55, Table 1 (Example 2)",>128 mg/L
NCC1O[C@H](O[C@@H]2C(O)[C@H](O[C@@H]3C(O)[C@H](N)CC(N)[C@H]3O[C@H]3OC4C(O)CO[C@H]4[C@H](O)C3N)O[C@@H]2CO)C(N)[C@H](O)[C@@H]1O (stereo partly drawn) [Compound 203],MIC,E coli wild type; [5],32 mg/L
CC[C@@H]1C(CO)O[C@H](O[C@@H]2C(N)C[C@@H](N)C(O)[C@H]2O[C@@H]2O[C@H](CO)[C@H](O[C@H]3OC(CN)[C@@H](O)C(O)C3N)C2O)[C@@H](N)C1O (stereo partly drawn) [Compound 206],MIC,E coli wild type; [5],8 mg/L
NC[C@@H]1O[C@H](O[C@@H]2C(O)[C@H](O[C@@H]3C(O)[C@H](N)CC(N)[C@H]3O[C@H]3OC4C(O)CCO[C@H]4[C@H](O)C3N)O[C@@H]2CO)C(N)C(O)[C@@H]1O (stereo partly drawn) [Compound 211],MIC,E coli wild type; [5],32 to 64 mg/L
NC[C@@H]1O[C@H](O[C@@H]2C(O)[C@H](O[C@@H]3C(O)[C@H](N)CC(N)[C@H]3O[C@H]3OC4C(O)CCCO[C@H]4[C@H](O)C3N)O[C@@H]2CO)C(N)C(O)[C@@H]1O (stereo partly drawn) [DC-196],IC50,[2]; Table 3 (Example 2),200 µM
same,IC50,[3]; Table 3 (Example 2),0.14 µM
same,MIC,E coli wild type; [6],4 mg/L
same,MIC,[4]; read-out: MIC AAC(6′),4 mg/L
same,MIC,[4]; read-out: MIC ANT(4′),2 mg/L
same,MIC,[4]; read-out: MIC APH(3′)-II,16 mg/L
same,MIC,[4]; read-out: MIC APH(3′)-VI,16 mg/L
NCC1O[C@H](O[C@@H]2C(O)[C@H](O[C@@H]3C(O)[C@H](N)CC(N)[C@H]3O[C@H]3OC4C(O)CO[C@H]4[C@H](O)C3N)O[C@@H]2CO)C(N)[C@H](O)[C@@H]1O (stereo partly drawn) [DC-204],IC50,[2]; Table 3 (Example 2),131 µM
same,IC50,[3]; Table 3 (Example 2),0.2 µM
same,MIC,E coli wild type; [6],8 mg/L
same,MIC,[4]; read-out: MIC AAC(6′),16 mg/L
same,MIC,[4]; read-out: MIC ANT(4′),4 to 8 mg/L
same,MIC,[4]; read-out: MIC APH(3′)-II,16 to 32 mg/L
same,MIC,[4]; read-out: MIC APH(3′)-VI,16 mg/L
